Patent publication US20190127381A1, “SUBSTITUTED FUSED PYRIMIDINONE COMPOUNDS” (TORRENT PHARMACEUTICALS LIMITED, priority 2016, published 2019)

Assays:
[1] = target: T1, purified recombinant human PI3K enzyme δ (Homo sapiens, UniProt O00329); assay: Inhibition of PI3-Kinase enzymatic activity (HTRF enzyme assay), δ; type: biochemical; conditions: 1 μM compound; PI3K δ 50 ng/well; PIP2 10 μM; ATP 200 μM; read-out: Percentage inhibition of PI3K activity, δ
T1 construct: purchased Invitrogen, USA
Method in brief: (§1)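 HTRF assay with compound at 1 μM (1.0% DMSO), recombinant human PI3Kδ (50 ng/well) or γ (100 ng/well) and PIP2 (10 μM), preincubated 15 min at room temperature. ATP (δ 200 μM, γ 50 μM) was then added for 30 min at room temperature. Percent inhibition was derived from the 665/615 nm signal ratio.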

[2] = target: T2, purified recombinant human PI3K enzyme γ (Homo sapiens, UniProt P48736); assay: Inhibition of PI3-Kinase enzymatic activity (HTRF enzyme assay), γ; type: biochemical; conditions: 1 μM compound; PI3K γ 100 ng/well; PIP2 10 μM; ATP 50 μM; read-out: Percentage inhibition of PI3K activity, γ
T2 construct: purchased Invitrogen, USA
Method in brief: as §1

[3] = test system: cigarette smoke induced Neutrophil accumulation in BAL Fluid; assay: Acute guinea pig model of airway inflammation (tobacco smoke, COPD); type: in vivo; conditions: for % Inhibition of neutrophil against vehicle group: exposure 56 minutes; for Neutrophil (*10^6 cells/animal) in BAL fluid: whole body aerosol exposure 56 minutes, day 6 to day 11, Mean ± SEM
Excerpt: The tobacco smoke induced airway inflammation model is used for in vivo efficacy of compound. Many investigators have used acute tobacco smoke (TS) exposure in rodents as models of airway inflammation for quick screening of anti-inflammatory therapies for COPD (J Pharmacol Exp Ther. 2008; 324(3):921-9; J Pharmacol Exp Ther. 2010; 332(3):764-75; Journal of Inflammation 2013, 10(Suppl 1):31 and Eur Respir J Suppl 2006; 663s:3850). Given its position as predominant cause of COPD, animal models using TS exposure would appear to be the logical choice for investigation (Respir Res. 2004; 2;5:18).
Guinea pigs were exposed to tobacco smoke (TS) in an acrylic chamber. Animals were exposed to TS from 5, 10, 15 cigarettes on day 1, day 2, day 3 respectively. From day 4 onwards till day 11, animals were exposed to TS from 15 cigarettes per day. On 11 days of exposure of guinea pig to TS, significant inflammatory cell recruitment, predominantly neutrophils, to lungs was observed as compared to air exposed control guinea pig (BALF neutrophil levels, 0.59±0.15*10^6 cells/animal in air control group vs 8.3±1.4*10^6cells/animal in smoke exposed vehicle group)
Lung delivery of test compound was achieved by whole body aerosol exposure using nebulizer for 56 minutes in a chamber. Guinea pig were divided in different dose groups and exposed in a chamber for 56 minutes with vehicle or Compound No. 39 (1 mg/ml or 3 mg/ml). A total quantity of 6.0 ml of either vehicle or test compound formulation was nebulized in chambers to respective groups over 56 mins period. Test compound was administered 2 hr prior to TS exposure from day 6 to day 11. Bronchoalveolar lavage (BAL) was performed 24 hr post last TS exposure.
Trachea of animal was cannulated using catheter. Phosphate Buffer Saline (PBS) was used as lavage fluid. A volume of 5.0 ml was gently instilled and withdrawn and collected in microcentrifuge tube placed on ice. This procedure was repeated further 5 times.
(§2) Lavage fluid was separated from cells by centrifugation and supernatant separated. The cell pallet was resuspended in known volume of PBS. Cells in aliquot were stained using Turk solution and total cell numbers were calculated by counting Turk stained aliquot under microscope using haemocytometer.
The residual cell suspension was resuspended and slides prepared using cyto centrifuge technique (Cytospin 4, Thermo Shandon). […] Up to 300 cells were counted and differentiated using standard morphometric techniques under light microscopy.
All results are presented at individual data for each animal and mean value calculated for each group. Percentage inhibition for the neutrophil was calculated for Compound No 39 treatment group against vehicle group.

[4] = test system: OVA induced pulmonary inflammatory cell accumulation in BAL fluid; assay: Ovalbumin (OVA) model of airway inflammation (asthma) in mice; type: in vivo; conditions: OVA challenge
Procedure: Allergen chicken egg ovalbumin (OVA) model, which shares features similar to human allergic asthma, including the presence of eosinophilic and lymphocytic lung inflammation, is frequently used for model for asthma. Ovalbumin is an inert protein that is not intrinsically immunogenic and therefore needs to be injected systemically in the presence of an adjuvant, typically aluminum hydroxide (alum), to induce Th2-driven response in mice (Curr. Protoc. Mouse Biol. 6:169-184, 2016).
Ovalbumin (20 μg) (OVA, Sigma Aldrich, St. Louis, Mo.), emulsified with inject alum (1 mg, 0.2 mL) was administered in mice intraperitoneally (i.p.) on days 1 and 14 for sensitization, and then challenged with OVA (0.5% w/v) exposure for 30 minutess using nebulizer on days 21, 22 and 23 in Compound no 44 treated and vehicle control animals. Saline control mice received normal saline as sensitization and challenge dose in similar fashion.
Lung delivery of compound of present invention was achieved by whole body aerosol exposure using nebulizer for 25 minutes in a chamber. Mice were divided in different dose groups and exposed in a chamber for 25 minutes with vehicle or Compound no 44 (1 mg/ml or 3 mg/ml). Test compound/vehicle was administered once daily for 5 days starting from day 20 till day 24. On each challenge day treatment was administered 2 hr before OVA challenge. Bronchoalveolar lavage (BAL) was performed 48 hr post last OVA exposure (i.e. on day 25).
Trachea of animal was cannulated using catheter. Phosphate Buffer Saline (PBS) was used as lavage fluid. A volume of 0.5 ml was gently instilled and withdrawn and collected in microcentrifuge tube placed on ice. This procedure was repeated further 3 times.
as §2
The residual cell suspension was resuspended with PBS and slides prepared using cyto centrifuge technique (Cytospin 4, Thermo Shandon). The slides were then fixed with methanol, air dried and stained with May Grunwald Giemsa stain. Up to 300 cells were counted and differentiated using standard morphometric techniques under light microscopy.
All results are presented at individual data for each animal and mean value calculated for each group. Percentage inhibition for each cell type is calculated as below.
% inhibition=[(Vehicle treatment−Drug treatment)/(Vehicle treatment−Saline treatment)]*100

[5] = 1 mg/ml nebulized 25 minutes once daily for 5 days
[6] = 3 mg/ml nebulized 25 minutes once daily for 5 days

T1 sequence (O00329 whole entry): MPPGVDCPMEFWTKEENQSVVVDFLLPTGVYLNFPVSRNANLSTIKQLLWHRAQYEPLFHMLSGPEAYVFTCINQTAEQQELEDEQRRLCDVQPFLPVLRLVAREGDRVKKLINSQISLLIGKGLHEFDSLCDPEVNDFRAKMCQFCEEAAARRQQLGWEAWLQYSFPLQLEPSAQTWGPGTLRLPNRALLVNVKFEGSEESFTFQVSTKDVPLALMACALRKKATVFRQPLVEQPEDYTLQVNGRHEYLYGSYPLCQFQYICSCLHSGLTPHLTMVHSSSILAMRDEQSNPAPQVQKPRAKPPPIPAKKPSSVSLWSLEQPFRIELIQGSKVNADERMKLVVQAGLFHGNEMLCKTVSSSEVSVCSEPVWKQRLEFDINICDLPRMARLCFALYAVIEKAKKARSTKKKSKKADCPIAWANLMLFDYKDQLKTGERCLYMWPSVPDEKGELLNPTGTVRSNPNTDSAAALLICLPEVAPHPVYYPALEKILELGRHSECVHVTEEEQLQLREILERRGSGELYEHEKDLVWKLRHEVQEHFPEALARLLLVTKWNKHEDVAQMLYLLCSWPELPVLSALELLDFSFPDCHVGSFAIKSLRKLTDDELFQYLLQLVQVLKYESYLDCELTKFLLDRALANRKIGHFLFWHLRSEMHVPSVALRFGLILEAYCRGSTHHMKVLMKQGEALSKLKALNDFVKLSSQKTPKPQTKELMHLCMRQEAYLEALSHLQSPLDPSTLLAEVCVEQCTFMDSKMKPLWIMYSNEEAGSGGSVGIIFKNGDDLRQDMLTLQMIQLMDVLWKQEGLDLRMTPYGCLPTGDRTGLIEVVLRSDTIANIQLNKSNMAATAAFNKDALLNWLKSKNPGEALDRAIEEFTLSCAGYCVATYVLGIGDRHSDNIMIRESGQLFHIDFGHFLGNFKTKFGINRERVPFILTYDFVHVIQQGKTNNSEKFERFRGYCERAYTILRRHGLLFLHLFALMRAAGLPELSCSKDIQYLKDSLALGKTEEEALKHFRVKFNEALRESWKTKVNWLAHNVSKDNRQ
T1 sequence (P27986 whole entry partner): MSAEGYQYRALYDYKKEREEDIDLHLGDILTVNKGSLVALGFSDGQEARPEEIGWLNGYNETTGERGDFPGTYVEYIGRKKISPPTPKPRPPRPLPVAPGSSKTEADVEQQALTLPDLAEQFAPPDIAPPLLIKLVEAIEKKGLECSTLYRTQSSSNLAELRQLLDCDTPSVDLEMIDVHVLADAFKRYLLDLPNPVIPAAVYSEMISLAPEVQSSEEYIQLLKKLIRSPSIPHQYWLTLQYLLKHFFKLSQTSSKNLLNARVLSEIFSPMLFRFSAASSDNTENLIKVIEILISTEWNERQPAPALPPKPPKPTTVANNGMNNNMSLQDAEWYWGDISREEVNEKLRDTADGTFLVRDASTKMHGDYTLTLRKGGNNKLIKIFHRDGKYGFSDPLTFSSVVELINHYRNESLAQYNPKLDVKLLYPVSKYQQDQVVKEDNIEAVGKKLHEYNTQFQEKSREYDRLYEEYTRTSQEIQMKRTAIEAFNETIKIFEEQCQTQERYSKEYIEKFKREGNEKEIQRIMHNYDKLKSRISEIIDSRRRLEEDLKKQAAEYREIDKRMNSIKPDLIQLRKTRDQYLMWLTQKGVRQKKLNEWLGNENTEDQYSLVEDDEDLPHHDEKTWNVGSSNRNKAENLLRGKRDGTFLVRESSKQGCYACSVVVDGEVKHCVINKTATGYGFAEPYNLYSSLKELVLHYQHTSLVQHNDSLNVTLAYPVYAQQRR
T2 sequence (P48736 whole entry): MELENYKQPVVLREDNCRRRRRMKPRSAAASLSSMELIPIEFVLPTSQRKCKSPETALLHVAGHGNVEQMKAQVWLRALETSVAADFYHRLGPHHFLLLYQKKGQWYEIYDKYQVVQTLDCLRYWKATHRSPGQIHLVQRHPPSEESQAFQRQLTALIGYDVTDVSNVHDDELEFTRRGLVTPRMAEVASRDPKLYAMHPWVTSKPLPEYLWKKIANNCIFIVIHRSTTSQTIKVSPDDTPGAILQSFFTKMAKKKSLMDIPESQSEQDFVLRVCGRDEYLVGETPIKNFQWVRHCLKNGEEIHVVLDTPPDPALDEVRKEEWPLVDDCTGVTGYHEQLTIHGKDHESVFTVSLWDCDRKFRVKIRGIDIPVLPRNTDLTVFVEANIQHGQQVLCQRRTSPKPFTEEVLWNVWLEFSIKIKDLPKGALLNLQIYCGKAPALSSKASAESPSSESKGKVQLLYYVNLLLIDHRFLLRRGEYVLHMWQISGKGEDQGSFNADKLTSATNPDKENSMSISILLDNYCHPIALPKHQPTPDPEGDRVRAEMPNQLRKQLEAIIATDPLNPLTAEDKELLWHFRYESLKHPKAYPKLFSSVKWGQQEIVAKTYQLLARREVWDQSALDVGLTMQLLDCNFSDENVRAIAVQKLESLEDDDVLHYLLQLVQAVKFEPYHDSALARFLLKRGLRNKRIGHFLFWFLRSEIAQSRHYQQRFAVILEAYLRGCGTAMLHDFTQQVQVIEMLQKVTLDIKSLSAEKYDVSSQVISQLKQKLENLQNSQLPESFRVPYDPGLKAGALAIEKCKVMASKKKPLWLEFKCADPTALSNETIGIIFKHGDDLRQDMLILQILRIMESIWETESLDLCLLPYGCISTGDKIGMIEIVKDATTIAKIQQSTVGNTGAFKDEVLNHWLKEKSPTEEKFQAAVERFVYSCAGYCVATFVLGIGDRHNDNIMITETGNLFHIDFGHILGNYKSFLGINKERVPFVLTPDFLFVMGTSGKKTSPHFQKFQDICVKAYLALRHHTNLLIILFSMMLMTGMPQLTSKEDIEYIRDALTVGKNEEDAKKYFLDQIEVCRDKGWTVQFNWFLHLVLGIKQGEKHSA

Row | inhibition at 1 µM [1] | inhibition at 1 µM [2] | Compound | % Inhibition of neutrophil against vehicle group ([3]; 1 mg/ml nebulized) | Neutrophil (*10^6 cells/animal) in BAL fluid ([3]; 1 mg/ml nebulized) | % Inhibition of neutrophil against vehicle group ([3]; 3 mg/ml nebulized) | Neutrophil (*10^6 cells/animal) in BAL fluid ([3]; 3 mg/ml nebulized) | reduced eosinophil influx (% inhibition) in BAL fluid [4, 5] | reduced lymphocyte influx (% inhibition) in BAL fluid [4, 5] | reduced eosinophil influx (% inhibition) in BAL fluid [4, 6] | reduced lymphocyte influx (% inhibition) in BAL fluid [4, 6]
1 | 80 to 100% | 80 to 100% | Cc1cccc2nc(Cn3nc(-c4ccc(O)c5c4CC(C)(C)O5)c4c(N)ncnc43)n(-n3c(C)ccc3C)c(=O)c12 [Compound No. 39, 2-{[4-amino-3-(7-hydroxy-2,2-dimethyl-2,3-dihydro-1-benzofuran-4-yl)-1H-pyrazolo[3,4-d]pyrimidin-1-yl]methyl}-3-(2,5-dimethyl-1H-pyrrol-1-yl)-5-methylquinazolin-4(3H)-one] | 22% | 6.5 ± 3.2 *10^6 cells/animal | 68% | 2.7 ± 1.4 *10^6 cells/animal | – | – | – | –
2 | 80 to 100% | 80 to 100% | Cn1cc(-c2cccc3nc(Cn4nc(-c5ccc(O)c6c5CC(C)(C)O6)c5c(N)ncnc54)n(-n4cccc4)c(=O)c23)cn1 [Compound No. 44, 2-{[4-amino-3-(7-hydroxy-2,2-dimethyl-2,3-dihydro-1-benzofuran-4-yl)-1H-pyrazolo[3,4-d]pyrimidin-1-yl]methyl}-5-(1-methyl-1H-pyrazol-4-yl)-3-(1H-pyrrol-1-yl)quinazolin-4(3H)-one] | – | – | – | – | 42% | 27% | 56% | 39%
